In test [1] the target is T1, human amylin receptor (calcitonin receptor co-expressed with receptor activity modifying protein, RAMP3) (hAMYR3) (Homo sapiens, UniProt O60896+P30988).
T1 construct: expressed in transfected cells
T1 sequence (P30988 25-474): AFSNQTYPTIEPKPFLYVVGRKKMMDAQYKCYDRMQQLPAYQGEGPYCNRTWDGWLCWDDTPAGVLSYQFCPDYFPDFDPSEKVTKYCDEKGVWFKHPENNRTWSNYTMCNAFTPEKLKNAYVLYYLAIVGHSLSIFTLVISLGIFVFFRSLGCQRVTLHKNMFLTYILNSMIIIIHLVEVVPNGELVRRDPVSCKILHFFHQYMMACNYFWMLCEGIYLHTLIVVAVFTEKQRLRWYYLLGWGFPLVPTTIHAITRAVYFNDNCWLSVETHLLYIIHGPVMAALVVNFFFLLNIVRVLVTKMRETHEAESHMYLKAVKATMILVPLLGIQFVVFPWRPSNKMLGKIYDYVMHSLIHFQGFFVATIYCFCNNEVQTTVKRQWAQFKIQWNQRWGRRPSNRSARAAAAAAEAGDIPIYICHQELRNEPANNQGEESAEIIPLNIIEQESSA
T1 sequence (O60896 24-148 partner): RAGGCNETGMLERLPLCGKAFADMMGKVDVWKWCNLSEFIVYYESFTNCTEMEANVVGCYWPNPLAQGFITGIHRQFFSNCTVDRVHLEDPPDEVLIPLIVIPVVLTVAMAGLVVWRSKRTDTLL
Kind of test: cAMP production in 1321N1 cells with stable recombinant expression of human amylin receptor (hAMYR3). The settings on record: for Ratio (selectivity hAMYR vs hCTR, ratio of EC50 values at the two receptors): EC50 hCTR / EC50 hAMYR3; for EC50: cAMP, 1321N1 cells, assay buffer with 0.1% BSA, read-out: EC50 (pM) hAMYR3. Format: cell-based. The procedure:
(§1) The functional activities of lipidated pramlintide analogue peptides, such as cAMP production, were tested in 1321N1 cell line with stable recombinant expression of human calcitonin receptor (hCTR) or human amylin receptor (calcitonin receptor co-expressed with receptor activity modifying protein, RAMP3) (hAMYR3) or HEK cells with stable recombinant expression of rat calcitonin receptor (rat CTR) or rat amylin receptor (calcitonin receptor co-expressed with receptor activity modifying protein, RAMP3) (Rat AMYR3).
(§2) Cryopreserved cell stock was thawed rapidly in a water-bath, suspended in assay buffer (0.1% BSA (Sigma # A3059) in HBSS (Sigma # H8264) with 25 mM HEPES, pH 7.4 and containing 0.5 mM IB MX (Sigma# 17018)) and spun at 240×g for 5 minutes. Cells were re-suspended in assay buffer at a batch-dependent optimized concentration (e.g. hCTR cells at 0.125×10^5 cells/mL, hAMYR3 cells at 0.125×10^5 cells/mL, rat CTR cells at 1x10^5 cells/mL, rat AMYR3 at 2×10^5 cells/mL).
(§3) The test peptide stock was prepared in DMSO and diluted in assay buffer to reach stated concentrations and transferred in duplicates into a 384-black shallow well microtitre assay plate (Corning # 3676). Cells were added to the assay plate, incubated at room temperature for 30 minutes and the cAMP level measured using cAMP dynamic 2 HTRF kit (Cisbio, Cat # 62AM4PEJ), following the two step protocol as per manufacturer's recommendations. The plates were read on an Envision (Perkin Elmer) using excitation wavelength of 320 nm and emission wavelengths of 620nm & 665 nm.
(§4) Data was transformed to % Delta F as described in the manufacturer's guidelines and analyzed as percent activation of maximal amylin or calcitonin effect by 4-parameter logistic fit to determine EC50 values. The selectivity of a peptide to hAMYR vs hCTR is defined as a ratio of EC50 values at the two receptors.
(In general: Cyclic AMP is a second messenger, typically raised through Gs and lowered through Gi signalling.)

Test [2] concerns the target T2, human calcitonin receptor (hCTR) (Homo sapiens, UniProt P30988).
T2 construct: expressed in transfected cells
T2 sequence (P30988 25-474): T1 sequence (P30988 25-474)
Kind of test: cAMP production in 1321N1 cells with stable recombinant expression of human calcitonin receptor (hCTR). Format: cell-based. The note with it: cAMP, 1321N1 cells, assay buffer with 0.1% BSA; read-out: EC50 (pM) hCTR. As to the method:
as §1, §2, §3, §4

As a reminder, the EC50 is the concentration that produces a half-maximal response.

Numbered stars: 1 amine (or outer) side, 2 acyl side, 3 side chain; on linkers, the order of the positions; unused ones are H or OH. Bridge positions count the residues as written; N and C are the ends. Square brackets hold non-standard residues; d marks the D form. Side chains are listed from the residue outwards. Peptide text beside a SMILES is read from it. * marks the point of attachment. C18 diacid = O=C(O)CCCCCCCCCCCCCCCCC(=O)*; γGlu = O=C(O)[C@H](CCC(=O)[*:2])N[*:1]; Aib = CC(C)(N)C(=O)O

On to `CC[C@H](C)[C@H](NC(=O)[C@@H]1CCCN1C(=O)CNC(=O)[C@H](Cc1ccccc1)NC(=O)[C@H](CC(N)=O)NC(=O)C(C)(C)NC(=O)[C@H](CO)NC(=O)[C@H](CO)NC(=O)[C@H](Cc1c[nH]cn1)NC(=O)[C@H](CCCNC(=N)N)NC(=O)[C@H](CC(C)C)NC(=O)[C@H](Cc1ccccc1)NC(=O)[C@H](CC(N)=O)NC(=O)[C@H](C)NC(=O)[C@H](CC(C)C)NC(=O)[C@H](CCCNC(=N)N)NC(=O)[C@H](CCC(N)=O)NC(=O)[C@@H](NC(=O)[C@H](C)NC(=O)[C@@H]1CSSC[C@H](NC(=O)[C@@H](N)CCCCNC(=O)CC[C@H](NC(=O)CC[C@H](NC(=O)CCCCCCCCCCCCCCCCC(=O)O)C(=O)O)C(=O)O)C(=O)N[C@@H](CC(N)=O)C(=O)N[C@@H]([C@@H](C)O)C(=O)N[C@@H](C)C(=O)N[C@@H]([C@@H](C)O)C(=O)N1)[C@@H](C)O)C(=O)N[C@@H](CC(C)C)C(=O)N1CCC[C@H]1C(=O)N1CCC[C@H]1C(=O)N[C@H](C(=O)N[C@@H](CC(N)=O)C(=O)N[C@H](C(=O)NCC(=O)N[C@@H](CO)C(=O)NC(C)(C)C(=O)N[C@H](C(=O)N[C@@H](Cc1ccc(O)cc1)C(N)=O)[C@@H](C)O)C(C)C)[C@@H](C)O` [Peptide 92, K(γE-γE-C18diacid)[CNTATC]ATQRLANFLRHSS(Aib)NFGPILPPTNVGS(Aib)TY-amide] (H-K([γGlu-γGlu-C18 diacid])CNTATCATQRLANFLRHSS[Aib]NFGPILPPTNVGS[Aib]TY-NH2; disulfide 2-7; N-terminus assumed), for which, in test [1], the “Ratio (selectivity hAMYR vs hCTR, ratio of EC50 values at the two receptors)” value is 130 and the EC50 stood at 341 pM. For the same molecule, the EC50 in test [2] turned out to be 44400 pM.
Turning to `CC[C@H](C)[C@H](NC(=O)[C@@H]1CCCN1C(=O)CNC(=O)[C@H](Cc1ccccc1)NC(=O)[C@H](CC(N)=O)NC(=O)[C@H](CC(N)=O)NC(=O)[C@H](CO)NC(=O)[C@H](CO)NC(=O)[C@H](Cc1c[nH]cn1)NC(=O)C(C)(C)NC(=O)[C@H](CC(C)C)NC(=O)[C@H](Cc1ccccc1)NC(=O)[C@H](CC(N)=O)NC(=O)[C@H](C)NC(=O)[C@H](CC(C)C)NC(=O)[C@H](CCCNC(=N)N)NC(=O)[C@H](CCC(N)=O)NC(=O)[C@@H](NC(=O)[C@H](C)NC(=O)[C@@H]1CSSC[C@H](NC(=O)[C@@H](N)CCCCNC(=O)CC[C@H](NC(=O)CCCCCCCCCCCCCCCCC(=O)O)C(=O)O)C(=O)N[C@@H](CC(N)=O)C(=O)N[C@@H]([C@@H](C)O)C(=O)N[C@@H](C)C(=O)N[C@@H]([C@@H](C)O)C(=O)N1)[C@@H](C)O)C(=O)N[C@H](CC(C)C)C(=O)N1CCC[C@H]1C(=O)N1CCC[C@H]1C(=O)N[C@H](C(=O)N[C@@H](CC(N)=O)C(=O)N[C@H](C(=O)NCC(=O)N[C@@H](CO)C(=O)N[C@@H](CC(N)=O)C(=O)N[C@H](C(=O)N[C@@H](Cc1ccc(O)cc1)C(N)=O)[C@@H](C)O)C(C)C)[C@@H](C)O` [Peptide 151, K(γE-C18diacid)[CNTATC]ATQRLANFL(Aib)HSSNNFGPI(dL)PPTNVGSNTY-amide] (H-K([γGlu-C18 diacid])CNTATCATQRLANFL[Aib]HSSNNFGPI[dL]PPTNVGSNTY-NH2; disulfide 2-7; N-terminus assumed), in test [1], the “Ratio (selectivity hAMYR vs hCTR, ratio of EC50 values at the two receptors)” value amounted to 14.7 and the EC50 was 61 pM. In test [2], the EC50 is 898 pM.

The values above are taken from patent publication US20240067693A1, “POLYPEPTIDES AND USES THEREOF” (MEDIMMUNE LIMITED, priority 2020, published 2024).
